Calls of active or inactive are those of the source. The calls are words filed in the database; no cut-off is given here.
Target: Photosystem II protein D1 (Chlamydomonas reinhardtii) (UniProt P07753)
Experiment: Non-competitive displacement of [14C]atrazine from Chlamydomonas reinhardtii photosystem II protein D1 assessed as DCIP-reduction by double-reciprocal plot

Activity: Active
SMILES: CCCCCCCC1=C(Br)c2nc3ccccn3c2C(=O)C1=O
